Measurements reported in patent publication EP0369035A1, “AGENT FOR TREATING PANCREATITIS OR THE LIKE” (priority 1988, dated 1989).
pIC50: −log10 of the molar value. Where two headings read alike, the source gives them in different places.

Columns and labels:
human plasma kallikrein = target: T1, human plasma kallikrein (Homo sapiens, UniProt P03952); experiment: Anti-plasma kallikrein activity: inhibition of S-2302 degradation; assay type: biochemical
T1 construct: 50 µl of 0.12 units/ml human plasma kallikrein solution
Description: 2) Assay of anti-plasma kallikrein activity Assay method of inhibition of S-2302 degradation
(§1) The test substance was dissolved in a 0.05 M Tris-HC1 (pH 7.8) buffer to make a total volume of 400 µl, and 50 µl of a 2 mM S-2302 solution was added to the solution. After incubation at 37°C for 5 minutes in an incubator, an addition of 50 µl of 0.12 units/ml human plasma kallikrein solution, and incubation at 37°C for 5 minutes, the reaction was terminated by an addition of 50 µl of 50% acetic acid.

in vivo = conditions: mouse, intravenous, ICR male mice, up-and-down method, read-out: Acute toxicity (LD50)
Description: ICR male mice 5 to 10 weeks old were used. The test substance was dissolved in a 5% dimethylsulfoxide aqueous solution, and the solution was intravenously administered in an amount of 0.1 to 0.2 ml/10 g body weight. An LD50 value was calculated by up-and-down method.

[1] = Measurement of half life in blood; assay type: in vivo; conditions: rat, iv, administered to the tail vein, SD-rats, plasma, HPLC
Description: [VI] Measurement of half life in blood
SD-rats 6 to 7 weeks old were used. The test substance was dissolved in an injective 5% glucose solution and administered to the tail vein. After the administration, blood samples were periodically obtained from the great vein and placed into heparinized test tubes. Plasma was separated by centrifugation and the test substance was extracted with ethyl acetate. After removal of the solvent, the residue was dissolved in 200 µl of methanol, and analyzed by high performance liquid chromatography. From the change of the concentration of the test substance in blood with time, a half life thereof in blood was calculated.

human plasmin [2] = target: T2, human plasmin (Homo sapiens, UniProt P00747); experiment: Anti-plasmin activity: inhibition of fibrinolysis (fibrin clot lysis time); assay type: biochemical
T2 construct: 50 µl of 0.2 casein units/ml of human plasmin

human plasmin [3] = target: T2, human plasmin; experiment: Anti-plasmin activity: inhibition of S-2251 degradation; assay type: biochemical
Description: ii) Assay method of inhibition of S-2251 degradation
The test substance was dissolved in a 0.05 M Tris-HC1 (pH7.4) buffer to make a total volume of 400 µl, and 50 µl of a 3 mM S-2251 solution was added to the solution. The mixture was incubated at 37°C for 5 minutes in an incubator, and after the addition of 50 µl of 0.2 casein units/ml of human plasmin, and incubation at 37°C for 4 minutes, the reaction was terminated by an addition of 50 µl of 50% acetic acid.

experimental DIC = experiment: Effect on experimental DIC and MOF (endotoxin-induced); assay type: in vivo, SD-rats; conditions: rat, 4 hours after endotoxin 10 mg/kg; for CPK: Table 5-1
Description: [III] Effect on experimental DIC
SD-rats, body weight of about 200 g, were starved overnight. Sodium pentobarbital was intraperioneally administered to anesthetize a rat, and then a cannula was inserted to the femoral vein, and the test substance dissolved in an injective 5% glucose solution was continually infused. Then, 10 minutes from the start of the injection, endotoxin (E. coli 0127:B8, Difco, U.S.) dissolved in physiological saline was injected through the tail vein to an amount of 10 mg/kg body weight, and 4 hours from the administration of endotoxin, the abdomen was opened, blood was obtained from the abdominal aorta, and platelets (Plt), fibrinogen (Fbg), fibrin degradation product (FDP), glutamic oxaloacetic transamirase (GOT), creatinine phosphokinase (CPK), and blood urin nitrogen (BUN) were measured.

human urokinase = human urokinase (Homo sapiens, UniProt P00749); experiment: Anti-urokinase activity: inhibition of S-2444 degradation; assay type: biochemical; conditions: substrate S-2444, 37°C, pH 8.8; read-out: Urokinase S-2444 (I50)
Description: 3) Assay of anti-urokinase activity Assay method of inhibition of S-2444 degradation
as §1, with “8.8)” for “7.8)”, “1” for “2”, “S-2444” for “S-2302”, “mixture.” for “solution.”, “500” for “0.12”, “urokinase” for “plasma kallikrein”

[4] = test system: experimental pancreatitis; experiment: Effect on experimental pancreatitis (sodium taurochorate + trypsin into the common bile duct), survival ratio; assay type: in vivo, SD-rats; set-up: Effect on experimental pancreatitis (100 mg/kg p.o.) After 24 hours / Effect on experimental pancreatitis (100 mg/kg p.o.) After 48 hours / Effect of existing control drug on experimental pancreatitis After 24 hours: unit not given here; conditions: rat; for Effect on experimental pancreatitis Survival ratio(%) After 24 hours / Effect on experimental pancreatitis Survival ratio(%) After 48 hours: 80 μg/kg/min. x 80 min. continuous infusion; for Effect on experimental pancreatitis (100 mg/kg p.o.) After 24 hours / Effect on experimental pancreatitis (100 mg/kg p.o.) After 48 hours / Effect of existing control drug on experimental pancreatitis After 24 hours: survival ratio; for Effect on experimental pancreatitis (100 mg/kg p.o.) After 24 hours / Effect on experimental pancreatitis (100 mg/kg p.o.) After 48 hours: 100 mg/kg p.o. 30 minutes before pancreatitis
Text: [II] Effect on experimental pancreatitis
SD-rats, body weight of about 200 g were, starved overnight, and 10 to 24 animals were used in one group. Sodium pentobarbital was intraperioneally administered to anesthetize each rat, and then a cannula was inserted to the femoral vein for the administration of the test substance. After abdominal surgery, the bile duct was blocked at a part thereof proximate to the liver, by a clip, a polyethylene tube was inserted to the common bile duct at a part thereof most proximate to the duodenum, and 0.1 ml of solution containing 2 mg sodium taurochorate and 1000 U trypsin dissolved in physiological saline was injected retrogrodely. After removal of the clip and tube, the common bile duct was ligated and the abdomen was closed. Note, the test substance was dissolved in an injective 5% glucose solution, and in the case of a continuous infusion, the solution was administered over 80 minutes starting from 10 minutes before the generation of pancreatitis. In the case of oral administration, the test substance was administered through an oral catheter 30 minutes before the generation of pancreatitis. After 24 hours and 48 hours from the generation of pancreatitis, the survival ratio of the animals was calculated and compared with a control group.

experimental shock = experiment: Effect on experimental shock (endotoxin-induced), survival ratio; assay type: in vivo, ICR-mice; conditions: dose of 30 mg/kg intraperitoneally 15 minutes before endotoxin 40 mg/kg, mouse
Description: [IV] Effect on experimental shock
ICR-mice, body weight of about 25 g, were starved overnight. The test substance was dissolved in an injective 5% glucose solution and intraperioneally administered, and 15 minutes later, endotoxin (E. coli 0127:B8, Difco, U.S.) dissolved in a physiological saline was intraperioneally administered to an amount of 40 mg/kg body weight.

bovine factor Xa = target: T3, bovine factor Xa (Bos taurus, UniProt P00743); experiment: Anti-FXa activity: inhibition of S-2222 degradation; assay type: biochemical
T3 construct: 0.05 ml of 0.3 vial/ml bovine factor Xa
Description: 4) Assay of anti-FXa activity Assay method of inhibition of S-2222 degradation
To 0.4 ml of the test substance dissolved in a 0.05 M Tris-HC1 (pH 8.3) buffer is added 0.05 ml of 3 mM S-2222 solution, and after incubation at 37°C for about 4 minutes, an addition of 0.05 ml of 0.3 vial/ml bovine factor Xa, and a reaction at 37°C for 4 minutes, the - reaction was terminated by adding 0.05 ml of 50% acetic acid.

[5] = substrate S-2302, 37°C, pH 7.8, read-out: Plasma kallikrein S-2302 (I50)
[6] = concentration giving a fibrin clot lysis time twice that of control, 37°C, pH7.4, read-out: Plasmin Fibrin (I50)
[7] = substrate S-2251, 37°C, pH7.4, read-out: Plasmin S-2251 (I50)
[8] = substrate S-2222, 37°C, pH 8.3, read-out: FXa S-2222 (I50)

T3 sequence (P00743 234-492 limits assumed): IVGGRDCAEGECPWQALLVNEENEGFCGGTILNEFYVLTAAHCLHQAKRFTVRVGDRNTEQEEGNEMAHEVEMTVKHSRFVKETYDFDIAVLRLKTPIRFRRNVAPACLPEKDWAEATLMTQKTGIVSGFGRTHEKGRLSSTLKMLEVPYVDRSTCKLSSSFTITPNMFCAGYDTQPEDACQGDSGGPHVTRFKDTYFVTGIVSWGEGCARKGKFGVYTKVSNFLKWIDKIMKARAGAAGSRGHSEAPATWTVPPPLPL
T3 sequence (P00743 41-180 partner limits assumed): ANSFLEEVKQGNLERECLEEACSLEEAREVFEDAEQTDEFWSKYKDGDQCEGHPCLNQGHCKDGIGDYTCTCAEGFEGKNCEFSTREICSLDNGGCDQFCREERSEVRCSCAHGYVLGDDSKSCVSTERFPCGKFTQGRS
T2 sequence (P00747 581-810 limits assumed): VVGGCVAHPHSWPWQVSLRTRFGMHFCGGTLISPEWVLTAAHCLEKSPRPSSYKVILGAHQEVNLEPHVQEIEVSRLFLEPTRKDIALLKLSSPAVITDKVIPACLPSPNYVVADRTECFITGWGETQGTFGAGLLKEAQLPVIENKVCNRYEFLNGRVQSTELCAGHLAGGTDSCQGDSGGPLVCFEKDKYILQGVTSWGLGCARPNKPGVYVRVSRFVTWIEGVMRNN
T2 sequence (P00747 97-580 partner limits assumed): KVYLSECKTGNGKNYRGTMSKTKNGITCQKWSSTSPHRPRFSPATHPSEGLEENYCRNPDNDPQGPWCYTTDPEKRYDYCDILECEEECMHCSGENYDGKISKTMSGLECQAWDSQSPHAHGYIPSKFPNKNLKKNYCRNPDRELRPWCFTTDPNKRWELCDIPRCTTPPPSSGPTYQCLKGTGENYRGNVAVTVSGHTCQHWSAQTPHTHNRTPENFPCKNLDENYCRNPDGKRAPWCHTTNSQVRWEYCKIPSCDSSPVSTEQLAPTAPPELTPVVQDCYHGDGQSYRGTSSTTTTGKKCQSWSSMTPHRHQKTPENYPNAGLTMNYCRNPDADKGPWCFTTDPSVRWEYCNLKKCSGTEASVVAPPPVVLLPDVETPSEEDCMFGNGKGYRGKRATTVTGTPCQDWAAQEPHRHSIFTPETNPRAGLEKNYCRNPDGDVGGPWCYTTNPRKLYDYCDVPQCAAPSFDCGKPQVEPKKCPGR
T1 sequence (P03952 391-638 limits assumed): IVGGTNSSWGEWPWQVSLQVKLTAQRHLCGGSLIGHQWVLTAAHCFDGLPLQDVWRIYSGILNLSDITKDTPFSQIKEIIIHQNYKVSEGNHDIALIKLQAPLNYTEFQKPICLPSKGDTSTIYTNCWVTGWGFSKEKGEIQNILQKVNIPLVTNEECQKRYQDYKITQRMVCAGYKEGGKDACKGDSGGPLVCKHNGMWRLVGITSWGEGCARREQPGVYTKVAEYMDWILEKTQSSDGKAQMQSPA
T1 sequence (P03952 20-390 partner limits assumed): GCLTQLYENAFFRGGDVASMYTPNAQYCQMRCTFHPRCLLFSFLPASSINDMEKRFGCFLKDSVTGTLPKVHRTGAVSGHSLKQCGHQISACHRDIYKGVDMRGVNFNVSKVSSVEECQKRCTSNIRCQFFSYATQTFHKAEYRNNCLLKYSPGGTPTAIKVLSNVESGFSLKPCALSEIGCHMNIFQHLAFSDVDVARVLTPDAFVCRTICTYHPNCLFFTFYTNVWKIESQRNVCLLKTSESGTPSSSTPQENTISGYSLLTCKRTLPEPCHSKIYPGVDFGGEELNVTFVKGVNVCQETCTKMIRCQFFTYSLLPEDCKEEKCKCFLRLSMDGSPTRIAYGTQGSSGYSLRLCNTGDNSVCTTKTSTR

| Structure (SMILES) | pIC50 (human plasma kallikrein; [5]) | LD50 (in vivo) [mg/kg] | half-life [1] [min] | pIC50 (human plasmin [2]; [6]) | pIC50 (human plasmin [3]; [7]) | BUN (experimental DIC; Dose 10 μg/kg/min infusion) [mg/dL] | FDP (experimental DIC; Dose 10 μg/kg/min infusion) [µg/mL] | Fbg (experimental DIC; Dose 10 μg/kg/min infusion) [mg/dL] | GOT (experimental DIC; Dose 10 μg/kg/min infusion) [U/ml] | Plat (experimental DIC; Dose 10 μg/kg/min infusion) | pIC50 (human urokinase) | Effect on experimental pancreatitis Survival ratio(%) After 24 hours [4] [%] | Effect on experimental pancreatitis Survival ratio(%) After 48 hours [4] [%] | Effect on experimental shock (Survival ratio (%) after 24 hours) (experimental shock) [%] | pIC50 (bovine factor Xa; [8]) | Effect on experimental pancreatitis (100 mg/kg p.o.) After 24 hours [4] | Effect on experimental pancreatitis (100 mg/kg p.o.) After 48 hours [4] | other results |
| --- | --- | --- | --- | --- | --- | --- | --- | --- | --- | --- | --- | --- | --- | --- | --- | --- | --- | --- |
| NC[C@H]1CC[C@H](C(=O)N[C@@H](Cc2ccc(OCc3ccccc3)cc2)C(=O)Nc2cccnc2)CC1 [Compound 1] | 5.77 | 70 | 15.3 | 5.54 | 5.21 | 28 ± 3 | 16 to 32 | 146 ± 7 | 299 ± 63 | 65 ± 6 x 10^4/μl | 4.35 | 55.5 | 29.1 | 82 | – | – | – | – |
| CC(=O)c1ccc(NC(=O)[C@H](Cc2ccc(OCc3cccc(Cl)c3)cc2)NC(=O)[C@H]2CC[C@H](CN)CC2)cc1 [Compound 3] | 6.42 | > 100 | – | 7.00 | 6.10 | 40 ± 5 | 8 to 64 | 160 ± 13 | 133 ± 4 | 78 ± 7 x 10^4/μl | 4.40 | – | – | 67 | 4.46 | – | – | CPK (experimental DIC; Dose 10 μg/kg/min infusion): 14 ± 2 U/1 |
| CC(=O)c1ccc(NC(=O)[C@H](Cc2ccc(OCc3ccccn3)cc2)NC(=O)[C@H]2CC[C@H](CN)CC2)cc1 [Compound 6] | 5.70 | 85 | 12.2 | 5.85 | 5.57 | 26 ± 2 | 8 to 32 | 179 ± 15 | 196 ± 28 | 95 ± 14 x 10^4/μl | 4.12 | 62.5 | 54.1 | 70 | 3.80 | 66.7 | 53.3 | BUN (experimental DIC; Dose 1 μg/kg/min infusion): 36 ± 2 mg/dL; FDP (experimental DIC; Dose 1 μg/kg/min infusion): 32 to 65 µg/mL; Fbg (experimental DIC; Dose 1 μg/kg/min infusion): 140 ± 18 mg/dL; GOT (experimental DIC; Dose 1 μg/kg/min infusion): 217 ± 29 U/ml; Plat (experimental DIC; Dose 1 μg/kg/min infusion): 68 ± 11 x 10^4/μl; CPK (experimental DIC; Dose 10 μg/kg/min infusion): 22 ± 6 U/1 |
| NC[C@H]1CC[C@H](C(=O)N[C@@H](Cc2ccc(OCc3ccccc3)cc2)C(=O)Nc2ccc(CC(=O)O)cc2)CC1 [Compound 8] | 5.52 | > 100 | 10.6 | 5.04 | 4.60 | – | – | – | – | – | 3.59 | 58.3 | 58.3 | – | 3.54 | 58.3 | 33.3 | – |
| NC[C@H]1CC[C@H](C(=O)N[C@@H](Cc2ccc([N+](=O)[O-])cc2)C(=O)Nc2ccc(C(=O)c3ccccc3)cc2)CC1 [Compound 10] | 5.57 | 85 | 6.8 | 5.74 | 5.15 | 32 ± 2 | 16 to 128 | 109 ± 30 | 302 ± 29 | 68 ± 8 x 10^4/μl | 5.30 | 50.0 | 33.3 | 79 | – | 66.7 | 53.3 | BUN (experimental DIC; Dose 100 μg/kg/min infusion): 30 ± 2 mg/dL; FDP (experimental DIC; Dose 100 μg/kg/min infusion): 16 to 128 µg/mL; Fbg (experimental DIC; Dose 100 μg/kg/min infusion): 128 ± 32 mg/dL; GOT (experimental DIC; Dose 100 μg/kg/min infusion): 258 ± 60 U/ml; Plat (experimental DIC; Dose 100 μg/kg/min infusion): 66 ± 10 x 10^4/μl; CPK (experimental DIC; Dose 100 μg/kg/min infusion): 20 ± 5 U/1 |
| NCC1CCC(C(=O)NC(Cc2ccc(OCc3ccccn3)cc2)C(=O)Nc2ccc(C(=O)O)cc2)CC1 (stereo not drawn) [Compound 20] | 5.85 | > 100 | 14 | 4.49 | 4.19 | – | – | – | – | – | – | 58.3 | 41.7 | – | 3.15 | 58.3 | 41.7 | – |
| CCOC(=O)c1ccc(OC(=O)CCCCCNC(=N)N)cc1 [FOY, gabexate mesilate, reference compound] | – | 248 | – | – | – | – | – | – | – | – | 5.89 | – | – | – | – | – | – | pIC50 (human plasma kallikrein): 5.89; half-life ([1]; in vivo): 0.4 min; pIC50 (human plasmin [2]): 5.52; pIC50 (bovine factor Xa): 4.37; pIC50 (human plasmin [3]): 5.47; Effect of existing control drug on experimental pancreatitis After 24 hours ([4]; 250 μg/kg/min x 80 min): 16.6; Effect of existing control drug on experimental pancreatitis After 24 hours ([4]; 1000 μg/kg/min x 80 min): 42.0 |
